± gives the expanded uncertainty stated by the source.
Legend:
[1] = Molar enthalpy of transition or fusion; settings: Crystal; DSC
[2] = Crystal; DTA

Compound | Molar enthalpy of transition or fusion [1] | Normal melting temperature [2]
Cc1ccc(C(c2ccc(C)cc2)(C(F)(F)F)C(F)(F)F)cc1 [2,2-bis(p-tolyl)hexafluoropropane] | 5.33 ± 0.167 kcal/mol | 84.10 ± 0.5 °C
Cc1ccc(C(C)(C)c2ccc(C)cc2)cc1 [2,2-bis(p-tolyl)propane] | 5.07 ± 0.143 kcal/mol | 78.60 ± 0.5 °C

Source: the NIST ThermoML archive (doi:10.1016/j.fluid.2008.02.016)
